# Measured values taken from a melting point compilation (Tetko et al.; mined from patent text by program, amines drawn as free bases though some values may be those of a salt).
row,SMILES,melting point
1,O=[N+]([O-])c1ccc2c(c1)C(c1ccccc1)=NCC(OP(=O)(N1CCOCC1)N1CCOCC1)=N2,208 to 209 °C
2,COc1ccncc1C#N,124 to 126 °C
3,CCNCC1CCN(c2cc3c(cc2Cl)c(=O)c(C(=O)O)cn3C2CC2)C1 (centres undefined),> 310 °C
4,CCCCN1CCC(CNC(=O)c2cc(Cl)c(NC)n3ccnc23)CC1,148 °C
5,CCOC(=O)c1cnc2scnn2c1=O,228 to 230 °C
6,Cn1nc(-c2cc(CO)c(Cl)cc2F)c(Cl)c1C(F)(F)F,90 °C
7,CC(=O)Nc1ccc2cccc(N3CCN(C)CC3)c2c1,173 to 177 °C
8,CCCCCCCCCCCCCCCCCCNC(=O)c1cc(OC(C)=O)cc(OC(C)=O)c1,99 to 101 °C
9,CO[C@@H]([C@H](OC)[C@H](O)COS(C)(=O)=O)[C@H](O)COS(C)(=O)=O,112 to 114 °C
10,CC(=O)NC(C)(C)c1ccc(CN2CCN(c3nccs3)CC2)cc1,118 to 120 °C
11,CCC(c1ccncc1)N1CCCNS1(=O)=O (centres undefined),90 to 105 °C
12,O=C1Nc2ccccc2C(c2ccccc2)=NC1NC(=S)c1cccc(C(F)(F)F)c1 (racemic),230 to 232 °C
13,CSc1c(C(=O)O)ccc(Cl)c1F,150 °C
14,CCOC(=O)C(=CN)C(=O)c1cc(F)c(Cl)c([N+](=O)[O-])c1Cl,113 to 114 °C
15,CCOCC(=O)N1Cc2cc(Cl)ccc2CC(C)C1=O (centres undefined),123 to 124 °C
16,CCOc1cnc(C(C)C)nc1O,154 °C
17,CCCCCn1cc(C(=O)O)c2ccc(Cl)cc21,152 to 154 °C
18,O=c1[nH]c(=O)n(C2CC(F)C(CO)O2)cc1C#CI (centres undefined),140 °C
19,Cc1c(Cl)cccc1Nc1ncccc1[N+](=O)[O-],134 to 135 °C
20,CC(C)(C)[Si](C)(C)Oc1ccc(NC(=O)CN2CCC(O)(Cc3ccc(Cl)cc3)CC2)cc1,135 to 136 °C
21,COc1ccc(C2OCC(C)(C)C(C(=O)NCCC(=O)O)O2)cc1 (centres undefined),135 to 136 °C
22,COCCCCC(=O)c1ccc([N+](=O)[O-])c(Cl)c1,54.5 to 56 °C
23,O=[N+]([O-])c1ccccc1Cc1n[nH]c(Cl)n1,160 to 163 °C
24,CN(C)CCCc1ccc(OCCCNc2nc(N)nn2C)cc1,112 to 114 °C
25,COc1ccc(C(C#N)=NOS(=O)(=O)C(C)C)cc1,72 °C

row,SMILES,melting point
1,O=[N+]([O-])c1ccc(Sc2ncccn2)cc1,103 to 104 °C
2,Cc1cccc(C)c1N1CCCCS/C1=N/N=C\c1ccc(-c2ncn(-c3ccc(OC(F)(F)F)cc3)n2)cc1,100 to 106 °C
3,O=c1oc2cccc(O)c2c2ccc([N+](=O)[O-])cc12,> 260 °C
4,O=C(CCl)NNC1=Nc2ccc(Cl)cc2N(c2ccccc2)C(=O)C1,210 to 215 °C
5,Nc1c(F)c(N2CCC(C3(N)CCC3)C2)c(F)c2c1c(=O)c(C(=O)O)cn2[C@@H]1C[C@@H]1F (some centres undefined),133 to 139 °C
6,CNS(=O)(=O)c1cc(OC)c(OC)c(C(=O)NCC2CCCN2CC2=CCCCC2)c1 (centres undefined),120 to 121 °C
7,O=C(O)CCCCC1NC(=O)OC1=O (centres undefined),102 to 104 °C
8,Cn1cc(-c2cc(F)c(F)c(OC3SCC(O)C(O)C3O)c2)cn1 (centres undefined),184 °C
9,CCC(O)(CCC(N)=O)c1ccc(Br)cc1 (centres undefined),122 to 123 °C
10,C=CCc1cn(C2OC(CO)C(O)C2O)c(=O)nc1N (centres undefined),176 °C
11,O=C(Cl)Oc1c(CCl)cccc1CCl,71.5 to 73.5 °C
12,CC(C)(C)c1cc(CNn2ccnc2)cc(C(C)(C)C)c1O,171 to 174 °C
13,CCOC(OCC)C(N)=O,47 to 51 °C
14,N#CC(C(=O)CF)c1cccc(Cl)c1 (centres undefined),90 to 96 °C
15,CCCCCCCC1=CC(=O)OC1(O)CNc1ccccc1 (centres undefined),172 to 174 °C
16,CCNc1nc(OC)c(C(=O)NCCN(CC)CC)nc1Cl,142 °C
17,CN(C)C1(c2ccccc2)CCC(CNC(=O)N2CC=C(c3c[nH]c4ccccc34)CC2)CC1 (centres undefined),112 to 115 °C
18,CCCCCNc1cccc2c1C(=O)N(C1(C)CCC(=O)NC1=O)C2=O (centres undefined),96 to 98 °C
19,CCOc1cc(OCC)nc(-c2nsc3ccc(-n4c(=O)cc(C(F)(F)F)n(C)c4=O)cc23)n1,197 to 200 °C
20,O=C1c2ccccc2C(=O)N1CCn1nnc(C(F)(F)F)n1,98 to 99.5 °C
21,O=C1O[C@@H](CO)CN1c1ccc(C2=CCOCC2)c(F)c1,127 to 130 °C
22,COc1ccc(C=Cc2cc(OC)c(OC)c(OC)c2)cc1OC,150 to 152 °C
23,O=C(O)C(=O)c1ccc(SCCOC2CCCCCCC2)cc1,84 to 85 °C
24,COc1cccc(NC(=O)NC2N=C(c3ccccc3)c3ccc(C)cc3N(C)C2=O)c1 (centres undefined),184 to 188 °C

# Other lines, results leading:
row,melting point,SMILES
1,177 to 183 °C,C=C(C)c1ccccc1S(=O)(=O)NC(=O)Nc1nc(C)cc(C)n1
2,224 to 226 °C,Cc1[nH]c(=S)n(Nc2ccccc2)c1-c1ccccc1
3,173 °C,CCc1nc2cc(CO)c(Cl)cc2n1-c1ccc(CCOC(=O)NS(=O)(=O)c2ccc(C)cc2)cc1
4,83 to 84 °C,COc1ccc(C(O)c2ccccc2OC)cn1 (centres undefined)
5,123 to 124 °C,C#CCOc1cc(-c2nn(C)c(S(C)(=O)=O)c2C)c(F)cc1Cl
6,208 to 210 °C,CCOCCCNc1nc(C)[nH]c2cc(-c3ccccc3)nc1-2
7,145 to 149 °C,CCOC(=O)Cc1cccc(Oc2ccccc2Cl)c1NS(C)(=O)=O
8,173 to 178 °C,CS(=O)(=O)c1ccc(-c2nc3cc(OC(=O)N4CCCCC4)ccc3s2)c(F)c1
9,> 200 °C,CN(C)CCCOc1ccc(C[C@H](NC(=O)[C@@H]2CCCN2S(=O)(=O)c2cn(C)cn2)C(=O)O)cc1
10,182 to 183 °C,Cc1nn(-c2ccccn2)c(-c2ccccc2)c1CC(=O)O
11,73 to 75 °C,CCC(c1ccc(C(=O)OC)cc1)C(C)NCC(O)c1ccc(O)c(CO)c1 (centres undefined)
12,186 to 188 °C,O=C(O)CCC(=O)c1ccc2oc3ccccc3c2c1
13,89 to 91 °C,COc1cc2c3c(c1)nc(SCc1ccc4ccccc4n1)n3CCC2
14,182 to 183 °C,O=C(Nc1ccc(Cl)cc1)C1=C(O)CS(=O)(=O)N(Cc2ccc(Cl)cc2)c2ccccc21
15,206 °C,CN1CCOc2ccc(S(=O)(=O)n3c(Cc4ccc(C(=O)O)cc4)cc4cc(C(F)(F)F)ccc43)cc21
16,149 °C,CC(=O)OC1CSC(Oc2cncc(-c3cccnc3)c2)C(OC(C)=O)C1OC(C)=O (centres undefined)
17,181 °C,CCOC(=O)C1=C(N)OC(C)=C(C(C)=O)C1c1cccc([N+](=O)[O-])c1 (centres undefined)
18,202 to 204 °C,CCCC1C(=O)C(NC(=O)C2CCc3ccccc3C2)=C(N)C(CCC)C1=O (centres undefined)
19,147 to 148 °C,Cc1noc(NS(=O)(=O)c2ccccc2-c2ccsc2)c1C
20,252 to 253 °C,O=C(O)c1ccc(COCc2csc3nc(C(=O)NCc4ccc(Cl)c(Cl)c4)[nH]c(=O)c23)cc1
21,151 to 154 °C,CCCCc1ncc(C(=O)OCC)c(=O)n1Cc1ccc(-c2ccccc2-c2nc(=O)o[nH]2)cc1
22,250 °C,O=C(NC1CCC1)c1cc(Nc2nc(N3CCCC3c3ccccn3)nc3ccoc23)[nH]n1 (centres undefined)
23,219 to 223 °C,COc1cc(OCc2ccccn2)ccc1/C=C/c1cc(/C=C/c2c[nH]c3ncccc23)n[nH]1
24,172 to 175 °C,Cc1ccc(Cn2ncc(-c3ccc(S(C)(=O)=O)cc3)c(-c3ccc(F)cc3)c2=O)s1
25,161 to 162 °C,COC(=O)C(=O)c1c(OC)cc(OCCOc2ccc3ccccc3c2)cc1OC

row,melting point,SMILES
1,163 to 165 °C,COC(=O)C1Oc2ccccc2Cc2cccc(O)c2O1 (centres undefined)
2,199 to 201 °C,CCn1cc(C(=O)NC2CC2c2ccccc2)c(=O)c2cnc(N3CCCC3)nc21 (centres undefined)
3,192 to 193 °C,COc1ccc(C2c3ccccc3C(c3ccc(OC)cc3)C2C(=O)O)cc1 (centres undefined)
4,233 to 235 °C,Oc1ccc(-c2c3ccc(O)cc3cc3sc4ccccc4c23)cc1
5,82 to 85 °C,COC(=O)[C@@]1(c2ccc(Br)cc2)CC1(c1ccccc1)c1ccccc1
6,189 °C,COc1ccc(C(OCC2OC(n3cnc4c(NC(=O)c5ccccc5)ncnc43)C(O)C2O[Si](C)(C)C(C)(C)C)(c2ccccc2)c2ccccc2)cc1 (centres undefined)
7,205 to 206 °C,O=C(O)c1cccc(-c2ccc3c(c2)N(c2ccc(Cl)c(Cl)c2)CC3)c1
8,282 to 285 °C,Cc1ccc2c(c1)C(c1ccccc1)CC(NC(=O)Nc1cccc(Cl)c1)C(=O)N2CC(=O)NC(C)(C)C (centres undefined)
9,161 °C,Cc1ccc(OC(C)C(=O)c2cc(C(C)(C)C)c(O)c(C(C)(C)C)c2)c(-n2nc3ccccc3n2)c1 (centres undefined)
10,84 to 85 °C,Cc1ccc(-c2nc3ccccc3s2)cc1
11,106 to 108 °C,Cc1ccc(S(=O)(=O)n2ccc3cc(F)ccc32)cc1
12,208 to 209 °C,COc1ccc(-c2nc(N)nc(NC(=O)c3cccnc3)n2)c2ccccc12
13,177 to 178 °C,COc1ccc(-c2nc(CC(=O)O)c(-c3ccco3)o2)cc1
14,190 to 192 °C,COc1cc2ccc3nc4ccccc4cc3c2cc1OC
15,86 to 93 °C,Cn1ncc(C(=O)c2ccc(S(C)(=O)=O)c3c2CC2CON=C32)c1OC(=O)c1ccccc1 (centres undefined)
16,115 to 116 °C,Cc1ccc(-c2cc(Cl)c3ccccc3n2)cc1Cl
17,63 to 65 °C,CCOC(=O)C1(C(=O)NCc2ccccc2)CC(=O)N(Cc2ccccc2)C1 (centres undefined)
18,154 to 155 °C,CC(C)C(C)(C#N)NC(=O)c1ccccc1C(=O)O (centres undefined)
19,109 to 110 °C,CCOC(=O)C(=O)c1cn(-c2ccccc2)c2ccccc12
20,164 to 166 °C,O=C(NCC1CCN(C(c2ccccc2)c2ccccc2)CC1)c1cc(F)ccc1[N+](=O)[O-]
21,155 to 159 °C,Cc1c(Cl)cc(-c2ccc(OC(=O)N3CCOCC3)nn2)cc1Cl
22,188 °C,OCc1cc2cc(OCc3ccccc3)c(F)cc2nc1I
23,131 to 132 °C,O=C1N(Cc2cnccc2C(F)(F)F)c2ccccc2C12COc1cc3c(cc12)OCCO3 (centres undefined)
24,218 to 222 °C,CC(=O)Nc1ccccc1CSc1nc2ccccc2[nH]1
25,> 300 °C,Cc1nn(-c2ccccn2)c2[nH]c3ccc(S(C)(=O)=O)cc3c(=O)c12
